# According to patent US20060166900A1, “Salt of morphine-6-glucuronide” (CeNeS Limited, priority 2002, published 2006):
# Assays:
# Type in all cases: physicochemical
# [1] = Colour of solution by visible spectrophotometry on storage (Example 3); conditions: 5% w/v solution in water
# Procedure: Colour of solution by UV spectrophotometry.
# (§1) Each test material was stored between 2-8*C prior to placing on stability. Each material was sub-divided into 900 mg aliquots, transferred to brown opaque HDPE plastic bottles and flushed with Argon prior to sealing. Sufficient samples were provided for each time point as well as spares for each storage condition. The samples were placed in appropriate incubators previously commissioned at storage conditions 25° C./60% RH, 40° C./75% RH and 60° C.
# Colour by Visible Spectrophotometry
# A 5% w/v solution of test material was prepared in water and the absorbance measured at 420 nm in a 1 cm silica cell using a Unicam UV4 Visible/UV spectrophotometer.
# [2] = Stability indicating HPLC assay and related substances on storage (Example 3)
# Procedure: Assay (% w/w) and related substances determination
# as §1
# Testing Procedures Test for Identity Content and Impurities
# Testing was performed in duplicate (2×25 mg) in accordance with a stability indicating HPLC assay method. The assay results were reported as M6G as is, M6G as the anhydrous, solvent free material and the anhydrous solvent free material corrected for the salt form using the relevant conversion factor.
# [3] = Visual appearance on storage (Example 3)
# Procedure: as §1
# The samples were stored for analysis according to the following table: […]
# [4] = Stability of M6G salts at room temperature over 6 years, HPLC; conditions: for Assay M6G corr.: content calculated as M6G derivative; for degradation / discolouration: storage at room temperature for six years, hydrobromide
# [5] = Water content by Karl Fisher analysis on storage (Example 3)
# Procedure: Water content (% w/w) by Karl Fisher analysis
# as §1
# Water Content by Karl Fisher Analysis
# Water content was determined in duplicate on an aliquot of equilibrated material (approximately 100 mg) using a Tritrino 720 KFS Titrator.
# [6] = almost 6 years at room temperature
# [7] = listed as hydrobromide salt of M6G
smiles,measurement,setting,value
Br.CN1CC[C@]23c4c5ccc(O)c4O[C@H]2[C@@H](O[C@@H]2O[C@H](C(=O)O)[C@@H](O)[C@H](O)[C@H]2O)C=C[C@H]3[C@H]1C5 [Morphine-6-glucuronide hydrobromide],Colour,"[1]; 1 month, 25° C./60% RH",0.073 Abs@420 nm
same,Colour,"[1]; 1 month, 40° C./75% RH",0.064 Abs@420 nm
same,Colour,"[1]; 1 month, 60° C.",0.261 Abs@420 nm
same,Colour,"[1]; 3 months, 25° C./60% RH",0.046 Abs@420 nm
same,Colour,"[1]; 3 months, 40° C./75% RH",0.066 Abs@420 nm
same,Colour,[1]; Initial,0.029 Abs@420 nm
same,Known Related Substances HN33177,"[2]; 1 month, 25° C./60% RH",0.74%
same,Known Related Substances HN75083,"[2]; 1 month, 25° C./60% RH",0.03%
same,"M6G Assay, Anhydrous basis","[2]; 1 month, 25° C./60% RH",85.18 % w/w
same,"M6G Assay, As is basis","[2]; 1 month, 25° C./60% RH",83.02 % w/w
same,"M6G Assay, Corrected for the salt form","[2]; 1 month, 25° C./60% RH",100.11 % w/w
same,Total Known,"[2]; 1 month, 25° C./60% RH",0.77%
same,Total Related Substances,"[2]; 1 month, 25° C./60% RH",0.84%
same,Total Unknown,"[2]; 1 month, 25° C./60% RH",0.07%
same,Known Related Substances HN33177,"[2]; 1 month, 40° C./75% RH",0.74%
same,Known Related Substances HN75076,"[2]; 1 month, 40° C./75% RH",0.01%
same,Known Related Substances HN75083,"[2]; 1 month, 40° C./75% RH",0.05%
same,"M6G Assay, Anhydrous basis","[2]; 1 month, 40° C./75% RH",85.09 % w/w
same,"M6G Assay, As is basis","[2]; 1 month, 40° C./75% RH",82.40 % w/w
same,"M6G Assay, Corrected for the salt form","[2]; 1 month, 40° C./75% RH",100.01 % w/w
same,Total Known,"[2]; 1 month, 40° C./75% RH",0.80%
same,Total Related Substances,"[2]; 1 month, 40° C./75% RH",0.80%
same,Total Unknown,"[2]; 1 month, 40° C./75% RH",0.00%
same,Known Related Substances HN33177,"[2]; 1 month, 60° C.",0.66%
same,Known Related Substances HN67003,"[2]; 1 month, 60° C.",0.10%
same,Known Related Substances HN75076,"[2]; 1 month, 60° C.",0.04%
same,Known Related Substances HN75083,"[2]; 1 month, 60° C.",0.02%
same,"M6G Assay, Anhydrous basis","[2]; 1 month, 60° C.",84.44 % w/w
same,"M6G Assay, As is basis","[2]; 1 month, 60° C.",82.82 % w/w
same,"M6G Assay, Corrected for the salt form","[2]; 1 month, 60° C.",99.25 % w/w
same,Total Known,"[2]; 1 month, 60° C.",0.82%
same,Total Related Substances,"[2]; 1 month, 60° C.",1.20%
same,Total Unknown,"[2]; 1 month, 60° C.",0.38%
same,stability based on % w/w assay,[2]; 3 month assay data,most stable
same,Known Related Substances HN33177,"[2]; 3 months, 25° C./60% RH",0.77%
same,Known Related Substances HN75083,"[2]; 3 months, 25° C./60% RH",0.04%
same,"M6G Assay, Anhydrous basis","[2]; 3 months, 25° C./60% RH",86.19 % w/w
same,"M6G Assay, As is basis","[2]; 3 months, 25° C./60% RH",84.30 % w/w
same,"M6G Assay, Corrected for the salt form","[2]; 3 months, 25° C./60% RH",101.30 % w/w
same,Total Known,"[2]; 3 months, 25° C./60% RH",0.81%
same,Total Related Substances,"[2]; 3 months, 25° C./60% RH",0.93%
same,Total Unknown,"[2]; 3 months, 25° C./60% RH",0.12%
same,Known Related Substances HN33177,"[2]; 3 months, 40° C./75% RH",0.70%
same,Known Related Substances HN75076,"[2]; 3 months, 40° C./75% RH",0.02%
same,"M6G Assay, Anhydrous basis","[2]; 3 months, 40° C./75% RH",85.85 % w/w
same,"M6G Assay, As is basis","[2]; 3 months, 40° C./75% RH",83.14 % w/w
same,"M6G Assay, Corrected for the salt form","[2]; 3 months, 40° C./75% RH",100.90 % w/w
same,Total Known,"[2]; 3 months, 40° C./75% RH",0.72%
same,Total Related Substances,"[2]; 3 months, 40° C./75% RH",0.72%
same,Total Unknown,"[2]; 3 months, 40° C./75% RH",0.00%
same,increase in the amount of degradation products as measured by HPLC,"[2]; 3 months, 40° C./75% RH",basically no increase
same,stability assessment,[2]; 25° C./60% RH and 40° C./75% RH for 3 months and 60° C. for 1 month,stable
same,Known Related Substances HN33177,[2]; Initial,0.72%
same,Known Related Substances HN67003,[2]; Initial,0.04%
same,Known Related Substances HN75083,[2]; Initial,0.10%
same,"M6G Assay, Anhydrous basis",[2]; Initial,83.63 % w/w
same,"M6G Assay, As is basis",[2]; Initial,82.26 % w/w
same,"M6G Assay, Corrected for the salt form",[2]; Initial,98.29 % w/w
same,Total Known,[2]; Initial,0.86%
same,Total Related Substances,[2]; Initial,0.94%
same,Total Unknown,[2]; Initial,0.08%
same,overall stability comparison,[2]; overall review of Example 3 data,more stable than all other salts and the base
same,Appearance,"[3]; 1 month, 25° C./60% RH",White crystalline powder
same,Appearance,"[3]; 1 month, 40° C./75% RH",White crystalline powder
same,Appearance,"[3]; 1 month, 60° C.",White crystalline powder
same,Appearance,"[3]; 3 months, 25° C./60% RH, hydrobromide",White crystalline powder
same,Appearance,"[3]; 3 months, 25° C./60% RH, listed as hydrobromide, hydrobromide",white crystalline solids
same,Appearance,"[3]; 3 months, 40° C./75% RH",White crystalline powder
same,Appearance,[3]; Initial,White crystalline powder
same,HN-33177,[4]; 0 years,0.3%
same,HN-75083,[4]; 0 years,<0.1%
same,Unknown related substances (sum area %),[4]; 0 years,<0.1 area %
same,Assay M6G corr.,[4]; 0 years,90.7%
same,HN-33177,[4]; 6 years at ambient temperature,0.4%
same,HN-67002,[4]; 6 years at ambient temperature,0.5%
same,HN-67003,[4]; 6 years at ambient temperature,0.2%
same,Unknown related substances (sum area %),[4]; 6 years at ambient temperature,1.0 area %
same,Assay M6G corr.,[4]; 6 years at ambient temperature,96.3%
same,largest unidentified peak,[4]; [6],≤ 0.4 area %
same,peaks present in the chromatogram that cannot be identified by retention time,[4]; [6],4
same,degradation,[4]; listed as M6G.HBr,very limited amount of degradation
same,discolouration,[4]; listed as M6G.HBr,no discolouration
same,degradation,[4]; [7],very limited degradation
same,discolouration,[4]; [7],not discoloured
same,Moisture,"[5]; 1 month, 25° C./60% RH",2.56 % w/w
same,Moisture,"[5]; 1 month, 40° C./75% RH",3.19 % w/w
same,Moisture,"[5]; 1 month, 60° C.",1.95 % w/w
same,Moisture,"[5]; 3 months, 25° C./60% RH",3.28 % w/w
same,Moisture,"[5]; 3 months, 40° C./75% RH",4.24 % w/w
same,Moisture,[5]; Initial,2.38 % w/w
